≈ marks a conversion by molar mass, not a printed value.
Legend:
Assay type in all cases: functional
Streptococcus pyogenes = assay: Antibacterial activity against Streptococcus pyogenes by broth dilution method
Pseudomonas aeruginosa = assay: Antibacterial activity against Pseudomonas aeruginosa by broth dilution method
Candida albicans = assay: Antifungal activity against Candida albicans by broth dilution method
Aspergillus clavatus = assay: Antifungal activity against Aspergillus clavatus by broth dilution method
Staphylococcus aureus = assay: Antibacterial activity against Staphylococcus aureus by broth dilution method
Escherichia coli = assay: Antibacterial activity against Escherichia coli by broth dilution method
Aspergillus niger = assay: Antifungal activity against Aspergillus niger by broth dilution method
[1] = test system: Mycobacterium tuberculosis; assay: Antimicrobial activity against Mycobacterium tuberculosis H37Rv by broth dilution method

| Compound | MIC (Streptococcus pyogenes) | MIC (Pseudomonas aeruginosa) | MIC (Candida albicans) | MIC (Aspergillus clavatus) | MIC (Staphylococcus aureus) | MIC (Escherichia coli) | MIC (Aspergillus niger) | MIC [1] |
| --- | --- | --- | --- | --- | --- | --- | --- | --- |
| Cc1ccc(C2C(Cl)C(=O)N2NC(=O)c2c[nH]c3c(ccc4nc(Cl)cc(C)c43)c2=O)cc1 (configuration not stated) | 250 µg/mL (≈ 519 µM) | 250 µg/mL (≈ 519 µM) | 200 µg/mL (≈ 416 µM) | > 1000 µg/mL | 250 µg/mL (≈ 519 µM) | 250 µg/mL (≈ 519 µM) | > 1000 µg/mL |  |
| COc1ccc(/C=N/NC(=O)c2c[nH]c3c(ccc4nc(Cl)cc(C)c43)c2=O)cc1 | 500 µg/mL (≈ 1190 µM) | 500 µg/mL (≈ 1190 µM) | 500 µg/mL (≈ 1190 µM) | 500 µg/mL (≈ 1190 µM) | 500 µg/mL (≈ 1190 µM) | 250 µg/mL (≈ 594 µM) | 500 µg/mL (≈ 1190 µM) |  |
| CC1(C)S[C@@H]2[C@H](NC(=O)[C@H](N)c3ccccc3)C(=O)N2[C@H]1C(=O)O [AMPICILLIN] | 100 µg/mL (≈ 286 µM) | 100 µg/mL (≈ 286 µM) |  |  | 250 µg/mL (≈ 715 µM) | 100 µg/mL (≈ 286 µM) |  |  |
| COC1=CC(=O)C[C@@H](C)[C@]12Oc1c(Cl)c(OC)cc(OC)c1C2=O [GRISEOFULVIN] |  |  | 500 µg/mL (≈ 1420 µM) | 100 µg/mL (≈ 283 µM) |  |  | 100 µg/mL (≈ 283 µM) |  |
| Cc1cc(Cl)nc2ccc3c(=O)c(C(=O)NN4C(=O)C(Cl)C4c4cc([N+](=O)[O-])ccc4O)c[nH]c3c12 (configuration not stated) | 500 µg/mL (≈ 946 µM) | 500 µg/mL (≈ 946 µM) | 250 µg/mL (≈ 473 µM) | 500 µg/mL (≈ 946 µM) | 500 µg/mL (≈ 946 µM) | 250 µg/mL (≈ 473 µM) | 500 µg/mL (≈ 946 µM) |  |
| COc1cc(/C=N/NC(=O)c2c[nH]c3c(ccc4nc(Cl)cc(C)c43)c2=O)ccc1O | 200 µg/mL (≈ 458 µM) | 500 µg/mL (≈ 1140 µM) | 250 µg/mL (≈ 572 µM) | 1000 µg/mL (≈ 2290 µM) | 100 µg/mL (≈ 229 µM) | 500 µg/mL (≈ 1140 µM) | 1000 µg/mL (≈ 2290 µM) | 500 µg/mL (≈ 1140 µM) |
| Cc1cc(Cl)nc2ccc3c(=O)c(C(=O)NN4C(=O)C(Cl)C4c4ccccc4Cl)c[nH]c3c12 (configuration not stated) | 200 µg/mL (≈ 399 µM) | 250 µg/mL (≈ 498 µM) | 100 µg/mL (≈ 199 µM) | 250 µg/mL (≈ 498 µM) | 200 µg/mL (≈ 399 µM) | 200 µg/mL (≈ 399 µM) | 250 µg/mL (≈ 498 µM) |  |
| COc1ccc(C2C(Cl)C(=O)N2NC(=O)c2c[nH]c3c(ccc4nc(Cl)cc(C)c43)c2=O)cc1 (configuration not stated) | 500 µg/mL (≈ 1010 µM) | 250 µg/mL (≈ 503 µM) | 500 µg/mL (≈ 1010 µM) | > 1000 µg/mL | 500 µg/mL (≈ 1010 µM) | 250 µg/mL (≈ 503 µM) | > 1000 µg/mL |  |
| COc1ccccc1/C=N/NC(=O)c1c[nH]c2c(ccc3nc(Cl)cc(C)c32)c1=O | 250 µg/mL (≈ 594 µM) | 250 µg/mL (≈ 594 µM) | 500 µg/mL (≈ 1190 µM) | 1000 µg/mL (≈ 2380 µM) | 250 µg/mL (≈ 594 µM) | 100 µg/mL (≈ 238 µM) | 1000 µg/mL (≈ 2380 µM) | 250 µg/mL (≈ 594 µM) |
| CCOC(=O)c1c[nH]c2c(ccc3nc(Cl)cc(C)c32)c1=O | 100 µg/mL (≈ 316 µM) | 250 µg/mL (≈ 789 µM) | 200 µg/mL (≈ 631 µM) | 1000 µg/mL (≈ 3160 µM) | 150 µg/mL (≈ 474 µM) | 250 µg/mL (≈ 789 µM) | 1000 µg/mL (≈ 3160 µM) | 500 µg/mL (≈ 1580 µM) |
| Cc1cc(Cl)nc2ccc3c(=O)c(C(=O)NN)c[nH]c3c12 | 200 µg/mL (≈ 661 µM) | 200 µg/mL (≈ 661 µM) | 500 µg/mL (≈ 1650 µM) | > 1000 µg/mL | 250 µg/mL (≈ 826 µM) | 100 µg/mL (≈ 330 µM) | > 1000 µg/mL | 200 µg/mL (≈ 661 µM) |
| NYSTATIN |  |  | 100 µg/mL | 100 µg/mL |  |  | 100 µg/mL |  |
| Cc1cc(Cl)nc2ccc3c(=O)c(C(=O)NN4C(=O)C(Cl)C4c4ccc(Cl)cc4)c[nH]c3c12 (configuration not stated) | 500 µg/mL (≈ 996 µM) | 100 µg/mL (≈ 199 µM) | 200 µg/mL (≈ 399 µM) | 500 µg/mL (≈ 996 µM) | 500 µg/mL (≈ 996 µM) | 100 µg/mL (≈ 199 µM) | 500 µg/mL (≈ 996 µM) | 100 µg/mL (≈ 199 µM) |
| NNC(=O)c1ccncc1 [ISONIAZID] |  |  |  |  |  |  |  | 0.2 µg/mL (≈ 1.46 µM) |
| Cc1cc(Cl)nc2ccc3c(=O)c(C(=O)N/N=C/c4cccc([N+](=O)[O-])c4O)c[nH]c3c12 | 500 µg/mL (≈ 1110 µM) | 200 µg/mL (≈ 443 µM) | 200 µg/mL (≈ 443 µM) | 500 µg/mL (≈ 1110 µM) | 500 µg/mL (≈ 1110 µM) | 150 µg/mL (≈ 332 µM) | 500 µg/mL (≈ 1110 µM) | 62.5 µg/mL (≈ 138 µM) |
| Cc1cc(Cl)nc2ccc3c(=O)c(C(=O)NN4C(=O)C(Cl)C4c4ccccc4O)c[nH]c3c12 (configuration not stated) | 500 µg/mL (≈ 1030 µM) | 200 µg/mL (≈ 414 µM) | 500 µg/mL (≈ 1030 µM) | 1000 µg/mL (≈ 2070 µM) | 500 µg/mL (≈ 1030 µM) | 100 µg/mL (≈ 207 µM) | 1000 µg/mL (≈ 2070 µM) | 500 µg/mL (≈ 1030 µM) |
| Cc1cc(Cl)nc2ccc3c(=O)c(C(=O)NN4C(=O)C(Cl)C4c4cccc([N+](=O)[O-])c4O)c[nH]c3c12 (configuration not stated) | 500 µg/mL (≈ 946 µM) | 200 µg/mL (≈ 379 µM) | 500 µg/mL (≈ 946 µM) | > 1000 µg/mL | 500 µg/mL (≈ 946 µM) | 62.5 µg/mL (≈ 118 µM) | > 1000 µg/mL | 200 µg/mL (≈ 379 µM) |
| Cc1cc(Cl)nc2ccc3c(=O)c(C(=O)NN4C(=O)C(Cl)C4c4ccccc4)c[nH]c3c12 (configuration not stated) | 250 µg/mL (≈ 535 µM) | 250 µg/mL (≈ 535 µM) | 500 µg/mL (≈ 1070 µM) | > 1000 µg/mL | 250 µg/mL (≈ 535 µM) | 100 µg/mL (≈ 214 µM) | > 1000 µg/mL | 250 µg/mL (≈ 535 µM) |
| COc1ccccc1C1C(Cl)C(=O)N1NC(=O)c1c[nH]c2c(ccc3nc(Cl)cc(C)c32)c1=O (configuration not stated) | 500 µg/mL (≈ 1010 µM) | 1000 µg/mL (≈ 2010 µM) | 250 µg/mL (≈ 503 µM) | > 1000 µg/mL | 250 µg/mL (≈ 503 µM) | 500 µg/mL (≈ 1010 µM) | > 1000 µg/mL |  |
| O=C(N[C@H](CO)[C@H](O)c1ccc([N+](=O)[O-])cc1)C(Cl)Cl [CHLORAMPHENICOL] | 50 µg/mL (≈ 155 µM) | 50 µg/mL (≈ 155 µM) |  |  | 50 µg/mL (≈ 155 µM) | 50 µg/mL (≈ 155 µM) |  |  |
| O=C(O)c1cn(C2CC2)c2cc(N3CCNCC3)c(F)cc2c1=O [CIPROFLOXACIN] | 50 µg/mL (≈ 151 µM) |  |  |  | 50 µg/mL (≈ 151 µM) | 25 µg/mL (≈ 75.4 µM) |  |  |
| CCn1cc(C(=O)O)c(=O)c2cc(F)c(N3CCNCC3)cc21 [NORFLOXACIN] | 10 µg/mL (≈ 31.3 µM) | 10 µg/mL (≈ 31.3 µM) |  |  | 10 µg/mL (≈ 31.3 µM) | 10 µg/mL (≈ 31.3 µM) |  |  |
| Cc1cc(Cl)nc2ccc3c(=O)c(C(=O)N/N=C/c4cc([N+](=O)[O-])ccc4O)c[nH]c3c12 | 250 µg/mL (≈ 553 µM) | 100 µg/mL (≈ 221 µM) | 200 µg/mL (≈ 443 µM) | 1000 µg/mL (≈ 2210 µM) | 200 µg/mL (≈ 443 µM) | 62.5 µg/mL (≈ 138 µM) | 1000 µg/mL (≈ 2210 µM) | 500 µg/mL (≈ 1110 µM) |
| Cc1cc(Cl)nc2ccc3c(=O)c(C(=O)N/N=C/c4ccc(Cl)cc4)c[nH]c3c12 | 250 µg/mL (≈ 588 µM) | 1000 µg/mL (≈ 2350 µM) | 500 µg/mL (≈ 1180 µM) | 250 µg/mL (≈ 588 µM) | 250 µg/mL (≈ 588 µM) | 500 µg/mL (≈ 1180 µM) | 250 µg/mL (≈ 588 µM) |  |
| Cc1cc(Cl)nc2ccc3c(=O)c(C(=O)N/N=C/c4ccccc4)c[nH]c3c12 | 250 µg/mL (≈ 640 µM) | 250 µg/mL (≈ 640 µM) | 250 µg/mL (≈ 640 µM) | > 1000 µg/mL | 200 µg/mL (≈ 512 µM) | 250 µg/mL (≈ 640 µM) | > 1000 µg/mL |  |
| Cc1cc(Cl)nc2ccc3c(=O)c(C(=O)N/N=C/c4ccccc4Cl)c[nH]c3c12 | 200 µg/mL (≈ 470 µM) | 500 µg/mL (≈ 1180 µM) | 250 µg/mL (≈ 588 µM) | > 1000 µg/mL | 100 µg/mL (≈ 235 µM) | 500 µg/mL (≈ 1180 µM) | 500 µg/mL (≈ 1180 µM) |  |
| COc1cc(C2C(Cl)C(=O)N2NC(=O)c2c[nH]c3c(ccc4nc(Cl)cc(C)c43)c2=O)ccc1O (configuration not stated) | 1000 µg/mL (≈ 1950 µM) | 500 µg/mL (≈ 974 µM) | 1000 µg/mL (≈ 1950 µM) | 500 µg/mL (≈ 974 µM) | 1000 µg/mL (≈ 1950 µM) | 250 µg/mL (≈ 487 µM) | 500 µg/mL (≈ 974 µM) |  |
| Cc1ccc(/C=N/NC(=O)c2c[nH]c3c(ccc4nc(Cl)cc(C)c43)c2=O)cc1 | 250 µg/mL (≈ 618 µM) | 250 µg/mL (≈ 618 µM) | 250 µg/mL (≈ 618 µM) | 500 µg/mL (≈ 1240 µM) | 250 µg/mL (≈ 618 µM) | 200 µg/mL (≈ 494 µM) | 500 µg/mL (≈ 1240 µM) |  |
| Cc1cc(Cl)nc2ccc3c(=O)c(C(=O)N/N=C/c4ccccc4O)c[nH]c3c12 | 200 µg/mL (≈ 492 µM) | 250 µg/mL (≈ 615 µM) | 100 µg/mL (≈ 246 µM) | 500 µg/mL (≈ 1230 µM) | 100 µg/mL (≈ 246 µM) | 250 µg/mL (≈ 615 µM) | 500 µg/mL (≈ 1230 µM) | 200 µg/mL (≈ 492 µM) |

— ChEMBL document CHEMBL3045610, “Pyridoquinolones containing azetidinones: synthesis and their biological evaluation” (2012)
